From ChEMBL document CHEMBL1909046, “DrugMatrix in vitro pharmacology data”

Key:
[1] = target: Mitogen-activated protein kinase 3 (Homo sapiens, UniProt P27361); test: DRUGMATRIX: Protein Serine/Threonine Kinase, ERK1 enzyme inhibition (substrate: Myelin Basic Protein); design: species or system Escherichia coli; conditions: Not Active = under 50% inhibition at 10 µM
[2] = target: Cannabinoid receptor 1 (Homo sapiens, UniProt P21554); format: cell membranes, Membrane; conditions: chem-1; also: in other assays of this panel Not Active means under 50% inhibition at 10 µM
[3] = target: T1, Alpha-2C adrenergic receptor (Homo sapiens, UniProt P18825); test: DRUGMATRIX: Adrenergic Alpha-2C radioligand binding (ligand: [3H] MK-912); format: cell membranes, Sf9, Membrane; conditions: sf9
T1 sequence (P18825 whole entry): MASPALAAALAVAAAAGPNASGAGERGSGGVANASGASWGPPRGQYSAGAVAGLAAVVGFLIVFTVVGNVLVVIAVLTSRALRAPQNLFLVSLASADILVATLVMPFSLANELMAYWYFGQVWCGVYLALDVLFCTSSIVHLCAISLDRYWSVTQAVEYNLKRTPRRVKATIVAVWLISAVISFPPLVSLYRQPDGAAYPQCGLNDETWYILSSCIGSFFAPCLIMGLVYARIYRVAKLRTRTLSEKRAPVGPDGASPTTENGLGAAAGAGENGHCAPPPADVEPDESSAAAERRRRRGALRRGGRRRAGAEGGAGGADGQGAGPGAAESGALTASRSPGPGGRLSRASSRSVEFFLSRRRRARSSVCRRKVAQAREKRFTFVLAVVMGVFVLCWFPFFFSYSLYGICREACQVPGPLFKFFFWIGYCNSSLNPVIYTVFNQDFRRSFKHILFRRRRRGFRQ

[4] = DRUGMATRIX: Sodium/nucleoside co-transporter radioligand binding (ligand: nitrobenzylthioinosine); format: cell membranes, Cavia porcellus, Dunkin-Hartley, Cerebral cortex, Membrane; conditions: Not Active = under 50% inhibition at 10 µM
[5] = target: T2, Cytochrome P450 2A6 (Homo sapiens, UniProt P11509); conditions: bti-tn-5b1-4; also: in other assays of this panel Not Active means under 50% inhibition at 10 µM
T2 sequence (P11509 whole entry): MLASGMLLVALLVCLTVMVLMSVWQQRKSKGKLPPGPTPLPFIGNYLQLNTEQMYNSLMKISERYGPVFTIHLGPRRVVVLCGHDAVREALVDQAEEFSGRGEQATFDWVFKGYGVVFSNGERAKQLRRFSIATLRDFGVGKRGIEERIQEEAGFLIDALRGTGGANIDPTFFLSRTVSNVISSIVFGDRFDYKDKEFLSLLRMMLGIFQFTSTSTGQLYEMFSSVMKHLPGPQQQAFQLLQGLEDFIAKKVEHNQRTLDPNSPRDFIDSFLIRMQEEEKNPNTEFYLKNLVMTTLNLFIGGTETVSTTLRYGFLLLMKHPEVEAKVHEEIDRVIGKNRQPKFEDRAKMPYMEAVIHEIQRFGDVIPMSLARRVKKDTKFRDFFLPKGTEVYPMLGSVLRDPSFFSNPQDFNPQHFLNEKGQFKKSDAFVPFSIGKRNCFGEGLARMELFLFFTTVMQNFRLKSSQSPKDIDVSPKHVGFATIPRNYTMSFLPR

[6] = DRUGMATRIX: Platelet-Derived Growth Factor (PDGF) radioligand binding (ligand: [125I] PDGF); format: cell-based; conditions: nih3t3; Not Active = under 50% inhibition at 10 µM
[7] = target: Cytochrome P450 2E1 (Homo sapiens, UniProt P05181); conditions: bti-tn-5b1-4; also: in other assays of this panel Not Active means under 50% inhibition at 10 µM
[8] = target: T3, C-C chemokine receptor type 4 (Homo sapiens, UniProt P51679); format: cell membranes, Membrane; conditions: chem-1; also: in other assays of this panel Not Active means under 50% inhibition at 10 µM
T3 sequence (P51679 whole entry): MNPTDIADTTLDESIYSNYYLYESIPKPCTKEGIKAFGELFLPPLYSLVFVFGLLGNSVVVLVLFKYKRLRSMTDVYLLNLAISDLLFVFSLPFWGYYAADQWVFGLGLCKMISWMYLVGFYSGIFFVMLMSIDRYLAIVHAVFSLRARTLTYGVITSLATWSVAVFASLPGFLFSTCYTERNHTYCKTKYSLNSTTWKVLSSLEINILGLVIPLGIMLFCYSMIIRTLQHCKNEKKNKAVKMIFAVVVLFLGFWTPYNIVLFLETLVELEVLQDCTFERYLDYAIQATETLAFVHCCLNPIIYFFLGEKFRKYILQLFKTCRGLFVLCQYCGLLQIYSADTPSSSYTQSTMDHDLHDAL

[9] = target: Beta-2 adrenergic receptor (Homo sapiens, UniProt P07550); test: DRUGMATRIX: Adrenergic beta2 radioligand binding (ligand: [3H] CGP-12177); format: cell membranes, Membrane; conditions: cho; Not Active = under 50% inhibition at 10 µM
[10] = target: T4, Alpha-1B adrenergic receptor (Rattus norvegicus, UniProt P15823); test: DRUGMATRIX: Alpha-1B adrenergic receptor radioligand binding (ligand: prazosin); format: cell membranes, Wistar, Liver, Membrane; conditions: Not Active = under 50% inhibition at 10 µM
T4 sequence (P15823 whole entry): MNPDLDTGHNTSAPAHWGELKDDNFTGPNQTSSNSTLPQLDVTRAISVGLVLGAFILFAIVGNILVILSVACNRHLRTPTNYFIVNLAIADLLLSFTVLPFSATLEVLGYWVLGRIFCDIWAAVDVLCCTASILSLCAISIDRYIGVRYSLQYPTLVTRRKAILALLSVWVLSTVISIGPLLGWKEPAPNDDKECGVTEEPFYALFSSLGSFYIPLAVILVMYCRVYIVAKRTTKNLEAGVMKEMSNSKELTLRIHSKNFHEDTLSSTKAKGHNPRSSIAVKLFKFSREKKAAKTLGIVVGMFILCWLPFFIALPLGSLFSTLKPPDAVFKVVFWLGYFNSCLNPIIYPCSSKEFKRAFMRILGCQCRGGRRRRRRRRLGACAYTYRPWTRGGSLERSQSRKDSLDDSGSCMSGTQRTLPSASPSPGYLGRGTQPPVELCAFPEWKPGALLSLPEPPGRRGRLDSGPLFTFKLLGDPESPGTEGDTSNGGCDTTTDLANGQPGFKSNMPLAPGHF

[11] = target: T5, Type-2 angiotensin II receptor (Homo sapiens, UniProt P50052); format: cell-based; conditions: cho-k1; also: in other assays of this panel Not Active means under 50% inhibition at 10 µM
T5 sequence (P50052 whole entry): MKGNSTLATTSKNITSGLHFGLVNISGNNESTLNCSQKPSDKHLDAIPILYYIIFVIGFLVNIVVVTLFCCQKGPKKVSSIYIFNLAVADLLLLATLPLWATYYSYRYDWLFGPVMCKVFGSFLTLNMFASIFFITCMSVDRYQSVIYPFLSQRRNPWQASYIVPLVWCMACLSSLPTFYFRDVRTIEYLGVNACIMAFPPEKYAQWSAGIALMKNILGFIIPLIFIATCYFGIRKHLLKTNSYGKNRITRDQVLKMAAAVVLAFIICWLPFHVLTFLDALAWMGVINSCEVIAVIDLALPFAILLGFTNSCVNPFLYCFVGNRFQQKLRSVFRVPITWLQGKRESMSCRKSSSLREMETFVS

[12] = DRUGMATRIX: beta-Lactamase enzyme inhibition (substrate: Nitrocefin); design: species or system Bacillus cereus; conditions: Not Active = under 50% inhibition at 10 µM

Chain of Cytochrome P450 2E1 (P05181 whole entry): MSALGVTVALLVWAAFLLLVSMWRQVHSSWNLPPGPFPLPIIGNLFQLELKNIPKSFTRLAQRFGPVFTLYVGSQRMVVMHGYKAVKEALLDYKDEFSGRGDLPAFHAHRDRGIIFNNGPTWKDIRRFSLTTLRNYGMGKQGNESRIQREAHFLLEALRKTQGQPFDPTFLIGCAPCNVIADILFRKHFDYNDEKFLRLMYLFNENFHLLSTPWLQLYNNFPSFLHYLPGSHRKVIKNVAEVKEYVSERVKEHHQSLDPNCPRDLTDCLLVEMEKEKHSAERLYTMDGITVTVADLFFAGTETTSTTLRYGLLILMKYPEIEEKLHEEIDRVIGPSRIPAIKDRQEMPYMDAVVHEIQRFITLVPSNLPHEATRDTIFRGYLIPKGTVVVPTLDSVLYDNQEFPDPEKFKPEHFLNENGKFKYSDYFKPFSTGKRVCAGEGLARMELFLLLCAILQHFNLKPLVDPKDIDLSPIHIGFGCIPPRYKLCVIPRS
Chain of Cannabinoid receptor 1 (P21554 whole entry): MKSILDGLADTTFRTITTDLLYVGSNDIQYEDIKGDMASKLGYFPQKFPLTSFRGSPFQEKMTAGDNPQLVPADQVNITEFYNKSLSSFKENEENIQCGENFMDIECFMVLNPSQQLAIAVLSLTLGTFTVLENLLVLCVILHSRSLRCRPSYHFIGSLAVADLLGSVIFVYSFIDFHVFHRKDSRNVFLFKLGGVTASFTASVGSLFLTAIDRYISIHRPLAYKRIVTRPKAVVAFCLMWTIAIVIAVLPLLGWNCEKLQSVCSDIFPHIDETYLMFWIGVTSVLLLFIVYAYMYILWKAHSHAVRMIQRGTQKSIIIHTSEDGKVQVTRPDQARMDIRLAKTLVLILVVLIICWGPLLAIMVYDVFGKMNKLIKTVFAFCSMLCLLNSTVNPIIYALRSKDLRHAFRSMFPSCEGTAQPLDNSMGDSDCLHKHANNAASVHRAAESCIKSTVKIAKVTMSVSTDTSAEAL
Chain of Mitogen-activated protein kinase 3 (P27361 whole entry): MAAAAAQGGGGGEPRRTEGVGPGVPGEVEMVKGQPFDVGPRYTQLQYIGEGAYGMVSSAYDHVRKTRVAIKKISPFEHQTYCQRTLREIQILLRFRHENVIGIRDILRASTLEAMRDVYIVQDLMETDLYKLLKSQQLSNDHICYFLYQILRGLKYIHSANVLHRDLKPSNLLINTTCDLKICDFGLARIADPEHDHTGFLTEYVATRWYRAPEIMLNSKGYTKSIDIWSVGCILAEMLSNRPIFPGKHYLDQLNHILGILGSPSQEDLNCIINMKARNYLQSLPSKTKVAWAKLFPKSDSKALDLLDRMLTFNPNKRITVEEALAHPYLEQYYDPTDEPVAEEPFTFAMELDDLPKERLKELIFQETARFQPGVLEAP
Chain of Beta-2 adrenergic receptor (P07550 whole entry): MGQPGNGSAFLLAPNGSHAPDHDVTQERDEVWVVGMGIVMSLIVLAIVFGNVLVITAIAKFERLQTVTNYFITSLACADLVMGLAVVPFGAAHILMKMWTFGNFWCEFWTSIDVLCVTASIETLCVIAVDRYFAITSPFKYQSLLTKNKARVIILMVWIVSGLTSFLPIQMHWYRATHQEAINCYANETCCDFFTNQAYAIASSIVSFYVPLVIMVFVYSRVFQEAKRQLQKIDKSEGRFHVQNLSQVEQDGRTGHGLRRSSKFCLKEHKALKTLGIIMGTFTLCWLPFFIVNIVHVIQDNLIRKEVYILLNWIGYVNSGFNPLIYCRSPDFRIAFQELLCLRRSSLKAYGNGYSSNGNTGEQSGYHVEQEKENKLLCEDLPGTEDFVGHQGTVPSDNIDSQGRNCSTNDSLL

Cc1ncc([N+](=O)[O-])n1CC(C)O (centres undefined) [SECNIDAZOLE]
Not Active: IC50 [1] | IC50 [2] | IC50 [3] | IC50 [4] | Ki [4] | IC50 [5] | Ki [5] | IC50 [6] | Ki [6] | IC50 [7] | Ki [7] | IC50 [8] | IC50 [9] | IC50 [10] | IC50 [11] | IC50 [12] | Ki [12]

CCC[C@@H]1C[C@@H](C(=O)N[C@@H]([C@H]2O[C@H](SC)[C@H](O)[C@@H](O)[C@H]2O)[C@@H](C)O)N(C)C1 [LINCOMYCIN]
Not Active: IC50 [1] | IC50 [2] | IC50 [3] | IC50 [4] | Ki [4] | IC50 [5] | Ki [5] | IC50 [6] | Ki [6] | IC50 [7] | Ki [7] | IC50 [8] | IC50 [9] | IC50 [10] | IC50 [11] | IC50 [12] | Ki [12]
